In this assay the target is T1, HCT116 TK (cellular transketolase, colon carcinoma HCT116) (Homo sapiens, UniProt P29401).
T1 construct: endogenous in cells; host or cells: HCT116 colon carcinoma cells
T1 sequence (P29401 1-623): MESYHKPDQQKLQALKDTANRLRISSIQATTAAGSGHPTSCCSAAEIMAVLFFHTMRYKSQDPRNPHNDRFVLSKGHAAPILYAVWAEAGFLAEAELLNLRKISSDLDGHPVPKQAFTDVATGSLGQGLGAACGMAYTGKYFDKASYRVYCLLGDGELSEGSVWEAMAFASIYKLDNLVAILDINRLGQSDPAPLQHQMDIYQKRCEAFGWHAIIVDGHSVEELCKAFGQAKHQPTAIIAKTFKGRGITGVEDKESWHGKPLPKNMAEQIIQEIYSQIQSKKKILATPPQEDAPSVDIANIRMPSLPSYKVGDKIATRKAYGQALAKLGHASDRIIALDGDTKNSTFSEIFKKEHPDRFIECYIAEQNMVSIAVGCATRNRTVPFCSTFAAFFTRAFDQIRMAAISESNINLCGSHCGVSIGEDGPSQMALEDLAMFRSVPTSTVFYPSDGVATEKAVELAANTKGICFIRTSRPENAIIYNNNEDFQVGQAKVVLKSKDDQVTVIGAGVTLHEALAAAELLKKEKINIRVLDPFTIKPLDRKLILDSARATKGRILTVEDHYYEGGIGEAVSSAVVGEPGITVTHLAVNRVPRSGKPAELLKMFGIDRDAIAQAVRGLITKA
The assay can be described thus: Cellular assay: transketolase activity in lysates of treated HCT116 cells. The format is cell-based. Conditions: colon carcinoma HCT116, thiamine-free DMEM, 48 hours treatment, mean. As for the experimental part:
Log-phase cells were trypsinized, washed and resuspended in thiamine-free DMEM. Optimization of the initial cell counts was carried out for each cell line prior to IC50 measurements. […] Using this initial cell count, IC50 could be monitored for six days.
Media containing 8,000 cells (95 μl) were used to seed individual wells in a 96-well clear-bottom cell cultured-treated sterile plate. Inhibitor compounds were dissolved in 100% DMSO as 10 mM solutions. Serial dilutions were then made in 100% DMSO to make up a 100× stock, then diluted to 20× in double-deionized H2O (ddH2O). Twenty-four hours after seeding, 5 μl of 20× inhibitor compound stock solution was added to the cells so that the final concentration of DMSO was 1%. Media were changed after 24 hours. Forty-eight hours after inhibitor compound treatment, the plates were inverted to remove media and blotted on a paper towel. The plates were then either subjected to enzymatic reactions immediately or were frozen at −20° C. for future assays.
Lysis buffer (20 mM HEPES, pH 7.5, 1 mM EDTA, 0.2 g/l Triton X-100® and 0.2 g/L sodium deoxycholate, supplemented with 1 mM DTT and 1 mM PMSF just before use, 80 μl) were added to each well of the assay plate and allow cell lysis at RT with shaking. Then 15 ul of 5× assay buffer containing final concentrations of 50 mM HEPES, 40 mM KCl, 2.5 mM MgCl2, 5 mM NaArsenate, 1 mM NAD, 2 unit/ml glyceraldehyde-3-phosphate dehydrogenase (GAPDH) was added to the 80 ul of lysate. Reaction kinetics were monitored on a fluorescent plate reader to allow any possible background activity via GAPDH to burn out. Then 5 ul of substrate mix containing final concentrations of 0.5 mM ribose-5-phosphate and 0.5 mM xylulose-5-phosphate was added to initiate the reaction. Monitor reaction kinetics were monitored using a fluorescent plate reader and the slope of the initial linear range was recorded as the velocity of the reaction (FU/min). Enzymatic inhibition was expressed as percent of control wells that were not treated with compounds. The values (y) were plotted as function of the log concentration (x) and fitted to a sigmoidal dose-response curve with variable slopes that bears the equation: y=bottom+(top−bottom)/(1+10^((log EC50-x)*hillslope)).
Broadly, the IC50 is the concentration needed to halve the response being measured. The low end stands for greater potency in that assay, the high end for weaker potency in that assay. Take `CCCSS/C(CCO)=C(/C)N(C=O)Cc1ccc(Cl)nc1N`: the IC50 stood at 7730 nM. The value for `CC(=O)OCC/C(SCOC(=O)N(C)C)=C(\C)N(C=O)Cc1ccc(C)nc1N` was 26300 nM.

`C/C(=C(\CCO)SS/C(CCO)=C(/C)N(C=O)Cc1ccc(C)nc1N)N(C=O)Cc1ccc(C)nc1N` returned an IC50 of 10 nM. Then `CCC(C)SS/C(CCO)=C(/C)N(C=O)Cc1ccc(C)nc1N` (stereo not drawn), with 253 nM. The value for `C/C(=C(\CCO)SCOC(=O)N(C)C)N(C=O)Cc1ccc(C)nc1N` was 507 nM; that for `C/C(=C(\CCO)SCCN1CCCCC1)N(C=O)Cc1ccc(C)nc1N` was 3700 nM; that for `CCOP(=O)(OCC)OCC/C(SC(=O)c1ccccc1)=C(\C)N(C=O)Cc1ccc(C)nc1N` was 7160 nM. The value for `CC(=O)N(Cc1ccc(C)nc1N)/C(C)=C(/CCO)SS/C(CCO)=C(/C)N(Cc1ccc(C)nc1N)C(C)=O` was 32 nM; that for `C/C(=C(\CCO)SSCCN1CCOCC1)N(C=O)Cc1ccc(C)nc1N` was 70 nM; that for `CC(=O)OCC/C(SC(C)=O)=C(\C)N(C=O)Cc1ccc(C)nc1N` was 50 nM. In the case of `C/C(=C(\CCO)SS/C(CCO)=C(/C)N(C=O)Cc1ccc(Cl)nc1N)N(C=O)Cc1ccc(Cl)nc1N`, the IC50 was 5.27 nM. The value for `C/C(=C1\CCOC(=O)S1)N(C=O)Cc1ccc(C)nc1N` was 15 nM; that for `CCCSS/C(CCO)=C(/C)N(C=O)Cc1ccc(C)nc1N` was 25 nM. Then `C/C(=C(\CCO)SSCCO)N(C=O)Cc1ccc(C)nc1N`, with 13 nM; and `C/C(=C(\CCO)SCCS(=O)(=O)c1ccccc1)N(C=O)Cc1ccc(C)nc1N`, with 1870 nM; and `C/C(=C(\CCOC(=O)c1ccccc1)SC(=O)c1ccccc1)N(C=O)Cc1ccc(C)nc1N`, with 28 nM. The value for `CC(=O)OCC/C(SC(=O)c1ccccc1)=C(\C)N(C=O)Cc1ccc(C)nc1N` was 108 nM; that for `C/C(=C(\CCO)SS/C(CCO)=C(/C)N(C=O)Cc1cccnc1N)N(C=O)Cc1cccnc1N` was 479 nM. `C/C(=C(\CCO)SCOC(=O)C(C)(C)C)N(C=O)Cc1ccc(C)nc1N` displayed an IC50 of 116 nM. Then `CC(=O)OCC/C(SCOC(=O)C(C)(C)C)=C(\C)N(C=O)Cc1ccc(C)nc1N`, with 25 nM; and `CCCSS/C(CCOP(=O)(OCC)OCC)=C(/C)N(C=O)Cc1ccc(C)nc1N`, with 1040 nM; and `C/C(=C(\CCO)SSCC1CCCO1)N(C=O)Cc1ccc(C)nc1N` (stereo not drawn), with 24 nM. The value for `C/C(=C(\CCO)SSCCN1CCCC1)N(C=O)Cc1ccc(C)nc1N` was 198 nM.

As to `CC(=O)Nc1nc(C)ccc1CN(C=O)/C(C)=C(/CCOC(C)=O)SCOC(=O)N(C)C`, the IC50 was found to be 19400 nM. This IC50 lies about 98-fold higher than the previous one. The value for `CC(=O)Nc1nc(C)ccc1CN(C=O)/C(C)=C(/CCOC(C)=O)SCOC(=O)C(C)(C)C` was 2480 nM; that for `CNC(=O)OCS/C(CCO)=C(/C)N(C=O)Cc1ccc(C)nc1N` was 50 nM; that for `CCCCS/C(CCO)=C(/C)N(C=O)Cc1ccc(C)nc1N` was 6460 nM. The value for `C/C(=C(\CCO)SSCCC(=O)O)N(C=O)Cc1ccc(C)nc1N` was 52 nM. For `Cc1ccc(CN(C=O)/C=C(/CCO)SS/C(=C\N(C=O)Cc2ccc(C)nc2N)CCO)c(N)n1`, inhibition was half-maximal at 102000 nM (IC50). Then `CC(=O)OCC/C(SS/C(CCOC(C)=O)=C(/C)N(C=O)Cc1ccc(C)nc1N)=C(\C)N(C=O)Cc1ccc(C)nc1N`, with 8 nM.

Source of the values: patent US7879885B2, “Thioalkeneamides as transketolase inhibitors” (Array Biopharma, Inc., priority 2004, dated 2011).
